From US20260207602A1, “EGFR INHIBITORS” (Blueprint Medicines Corporation, priority 2022, published 2026)

The compounds below were run against T1, EGFR L858R (Homo sapiens, UniProt P00533, L858R) (assay: Biochemical EGFR inhibition assay (Caliper mobility shift), EGFR L858R). Conditions: biochemical Caliper mobility shift assay, EGFR L858R enzyme; read-out: Enz EGFR L858R IC50.
T1 construct: purchased SignalChem E10-122BG
Method: Inhibitory effects of the compounds of the disclosure were measured in biochemical assays that measure the phosphorylation activity of EGFR enzyme phosphorylates 2.5 micromolar 5-FAM-[…]-CONH2 peptide substrate (ProfilerPro Kinase Peptide Substrate 22, PerkinElmer, Part #760366) in the presence of adenosine-5′-triphosphate (ATP) and varying concentrations of the test compound in 100 mM 2-[4-(2-hydroxyethyl)piperazin-1-yl]ethanesulfonic acid (HEPES), pH 7.5, 10 mM MgCl2, 0.015% Brij-35, 1 mM dithiothreitol (DTT), 1.0% dimehylsulfoxide (DMSO). Assays were performed at 1.0 mM ATP or at ATP Km of the EGFR enzymes. Reactions proceeded until between 10% to 20% total peptides were phosphorylated at room temperature (25° C.) and were terminated with 35 mM 2,2′,2″,2′″-(ethane-1,2-diyldinitrilo)tetraacetic acid (EDTA). Product was detected using the Caliper mobility shift detection method where the phosphorylated peptide (product) and substrate were electrophoretically separated and measured. Percent activity was plotted against log concentration of compound and points to generate an apparent IC50. The following enzyme forms of • EGFR were examples that were used in these assays: • EGFR WT (SignalChem, E10-112G) • EGFR L858R (SignalChem, E10-122BG) • EGFR (d746-750) (SignalChem, E10-122JG) • EGFR L858R C797S (SignalChem, E10-122ZG) • EGFR (d746-750) C797S (SignalChem, E10-122TG)

T1 sequence (P00533 25-1210 L858R): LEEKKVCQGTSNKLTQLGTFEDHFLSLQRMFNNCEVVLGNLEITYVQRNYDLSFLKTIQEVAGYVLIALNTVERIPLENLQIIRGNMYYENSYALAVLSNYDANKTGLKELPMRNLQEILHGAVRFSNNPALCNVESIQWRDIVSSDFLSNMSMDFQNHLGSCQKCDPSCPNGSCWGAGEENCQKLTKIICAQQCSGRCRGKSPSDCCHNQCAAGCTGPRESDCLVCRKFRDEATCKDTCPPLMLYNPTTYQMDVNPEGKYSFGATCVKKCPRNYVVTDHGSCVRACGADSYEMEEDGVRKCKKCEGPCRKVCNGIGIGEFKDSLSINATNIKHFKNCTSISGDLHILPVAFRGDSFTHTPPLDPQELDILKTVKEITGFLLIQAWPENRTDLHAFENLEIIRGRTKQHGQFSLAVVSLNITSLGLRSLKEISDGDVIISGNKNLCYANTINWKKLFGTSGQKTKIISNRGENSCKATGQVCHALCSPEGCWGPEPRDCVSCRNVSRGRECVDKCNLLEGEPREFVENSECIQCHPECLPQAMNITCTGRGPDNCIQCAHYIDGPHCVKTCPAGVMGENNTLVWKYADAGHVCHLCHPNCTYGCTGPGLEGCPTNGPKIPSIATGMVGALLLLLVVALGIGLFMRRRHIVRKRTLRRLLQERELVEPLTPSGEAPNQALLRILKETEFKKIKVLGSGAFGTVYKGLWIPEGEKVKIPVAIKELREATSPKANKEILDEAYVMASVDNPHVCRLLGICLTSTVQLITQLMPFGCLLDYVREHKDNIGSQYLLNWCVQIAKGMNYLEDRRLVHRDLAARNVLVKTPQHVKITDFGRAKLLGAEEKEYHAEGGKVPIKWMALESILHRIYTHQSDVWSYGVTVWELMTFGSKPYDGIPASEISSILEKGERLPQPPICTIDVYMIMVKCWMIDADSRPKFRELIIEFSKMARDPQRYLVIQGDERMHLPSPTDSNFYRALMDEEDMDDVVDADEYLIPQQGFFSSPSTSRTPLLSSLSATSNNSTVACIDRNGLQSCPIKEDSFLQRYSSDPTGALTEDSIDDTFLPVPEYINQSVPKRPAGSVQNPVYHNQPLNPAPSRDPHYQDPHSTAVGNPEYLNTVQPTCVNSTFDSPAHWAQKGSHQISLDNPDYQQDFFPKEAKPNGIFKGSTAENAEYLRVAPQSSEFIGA

Row | Compound | IC50 [nM]
1 | C[C@@H](Oc1cc(-c2cnn(C)c2)cc2ncnc(Nc3ccc4ncsc4c3F)c12)C(=O)N(C)C (single isomer, unassigned) [Example 280] | ≤ 10
2 | C[C@H](CN(C)C)Oc1cc(N2CC[C@@H](C(C)(C)O)C2)cc2ncnc(Nc3ccc4ncsc4c3)c12 (single isomer, unassigned) [Example 156] | ≤ 10
3 | CN1CC[C@H](Nc2cc3c(Nc4ccc5ncsc5c4)ncnc3cc2-c2ccn(C)n2)[C@H](F)C1 (single isomer, unassigned) [Example A06, N4-(benzo[d]thiazol-6-yl)-N6-((3S,4R)-3-fluoro-1-methylpiperidin-4-yl)-7-(1-methyl-1H-pyrazol-3-yl)quinazoline-4,6-diamine or N4-(benzo[d]thiazol-6-yl)-N6-((3R,4S)-3-fluoro-1-methylpiperidin-4-yl)-7-(1-methyl-1H-pyrazol-3-yl)quinazoline-4,6-diamine] | ≤ 10
4 | CN1CC[C@H](Oc2cc(-c3cnn(C)c3)cc3ncnc(Nc4ccc5ncsc5c4)c23)[C@@H](F)C1 (single isomer, unassigned) [Example 345] | ≤ 10
5 | Cn1cc(-c2cc(O[C@@H]3CC[C@@H]3O)c3c(Nc4ccc5ncsc5c4)ncnc3c2)cn1 (single isomer, unassigned) [Example A52] | ≤ 10
6 | COc1nn(C)cc1-c1cc(O[C@H]2CCNC[C@@H]2F)c2c(Nc3ccc4ncsc4c3)ncnc2c1 (single isomer, unassigned) [Example 361] | ≤ 10
7 | C[C@@H](Oc1cc(-c2cnn(C)c2)cc2ncnc(Nc3ccc4ncsc4c3F)c12)C1(C)COC1 (single isomer, unassigned) [Example 87] | ≤ 10
8 | CN1C[C@H](F)C[C@H](Oc2cc(-c3cnn(C)c3)cc3ncnc(Nc4ccc5ncsc5c4)c23)C1 (single isomer, unassigned) [Example 337] | ≤ 10
9 | CC(Oc1cc(-c2cn[nH]c2)cc2ncnc(Nc3ccc4ncsc4c3)c12)C1COC1 (single isomer, unassigned) [Example 123] | ≤ 10
10 | COC[C@H](C)Oc1cc(N2CCN(C(C)C)C2=O)cc2ncnc(Nc3ccc4ncsc4c3)c12 (single isomer, unassigned) [Example 119] | ≤ 10
11 | C[C@H](Oc1cc(-c2cnn(C)c2)cc2ncnc(Nc3ccc4ncsc4c3F)c12)C(=O)N1CCOCC1 (single isomer, unassigned) [Example 283] | ≤ 10
12 | CC[C@@H](Oc1cc(-c2cnn(C)c2)cc2ncnc(Nc3ccc4ncsc4c3F)c12)C1COC1 (single isomer, unassigned) [Example 93] | ≤ 10

More lines, now with the values ahead:

Row | IC50 [nM] | Compound
13 | ≤ 10 | CN1CC[C@@H](Nc2cc3c(Nc4ccc5ncsc5c4)ncnc3cc2-c2ccn(C)n2)[C@H](F)C1 (single isomer, unassigned) [Example 328]
14 | ≤ 10 | COc1nn(C)cc1-c1cc(O[C@H](C)C2COC2)c2c(Nc3ccc4ncsc4c3F)ncnc2c1 (single isomer, unassigned) [Example 79]
15 | ≤ 10 | C[C@H](CO)n1cc(-c2cc(O[C@H](C)C3COC3)c3c(Nc4ccc5ncsc5c4)ncnc3c2)cn1 (single isomer, unassigned) [Example 298]
16 | ≤ 10 | Cn1cc(-c2cc(O[C@H]3CCNC[C@@H]3F)c3c(Nc4ccc5ncsc5c4)ncnc3c2)cn1 (single isomer, unassigned) [Example 347]
17 | ≤ 10 | CN1CC[C@@H](Oc2cc(-c3cnn(C)c3)cc3ncnc(Nc4ccc5ncsc5c4)c23)[C@@H](F)C1 (single isomer, unassigned) [Example 341]
18 | ≤ 10 | COc1nn(C)cc1-c1cc(O[C@@H](C)C(=O)N(C)C)c2c(Nc3ccc4ncsc4c3F)ncnc2c1 (single isomer, unassigned) [Example 288]
19 | ≤ 10 | C[C@@H](Oc1cc(-c2cnn(C)c2)cc2ncnc(Nc3ccc4ncsc4c3)c12)C(F)F (single isomer, unassigned) [Example 53]
20 | ≤ 10 | CN(C)C[C@@H](Oc1cc(-c2cnn(C)c2)cc2ncnc(Nc3ccc4ncsc4c3)c12)C(F)F (single isomer, unassigned) [Example 152]
